Laboratory results published in ChEMBL document CHEMBL1157444, “Sucutiniranes A and B, new cassane-type diterpenes from Bowdichia nitida” (Bioorg Med Chem Lett, 2008).
≈ marks a conversion by molar mass, not a printed value. Calls of active or inactive are those of the source. No cut-off for these calls is given here.

Tests used:
[1] = test system: Plasmodium falciparum; experiment: Antiplasmodial activity against Plasmodium falciparum 3D7; format: functional, organism-based
[2] = Cytotoxicity against human COLO201 cells; format: cell-based; conditions: COLO 201
[3] = test system: Plasmodium falciparum; experiment: Antiplasmodial activity against Plasmodium falciparum 3D7 at 1 ug/mL; format: functional, organism-based

Row | SMILES | IC50 [1] [µg/mL] | IC50 [2] [µg/mL] | Activity [3]
1 | CC(=O)O[C@H]1[C@H](OC(C)=O)[C@H]2C(C)(C)CCC[C@]2(C)[C@H]2Cc3occc3[C@H](C)[C@H]12 | 0.39 (≈ 0.969 µM) | > 100 | –
2 | CC(=O)O[C@H]1C[C@H]2[C@@H](C)C3=CC(=O)O[C@]3(O)C[C@@H]2[C@@]2(C)CCCC(C)(C)[C@H]12 [SUCUTINIRANE A] | – | 37.3 (≈ 99.1 µM) | inactive
3 | CC(=O)O[C@H]1C[C@H]2[C@@H](C)C3=CC(=O)O[C@@H]3C[C@@H]2[C@@]2(C)CCCC(C)(C)[C@H]12 [12-DEOXY-SUCUTINIRANE A] | – | > 100 | inactive
4 | CC(=O)O[C@H]1C[C@H]2[C@@H](C)c3ccoc3C[C@@H]2[C@@]2(C)CCCC(C)(C)[C@H]12 | – | 86.6 (≈ 251 µM) | inactive
5 | CC(=O)O[C@H]1C[C@@H]2[C@H]([C@H](O)[C@]3(C=COC3=O)[C@@H]2C)[C@@]2(C)CCCC(C)(C)[C@H]12 | – | > 100 | inactive
6 | CC(=O)O[C@H]1C[C@@H]([C@@H](C)C2=CC(=O)OC2)[C@H](C=O)[C@@]2(C)CCCC(C)(C)[C@H]12 | – | > 100 | inactive
